Test results from patent US20230149326A1, “PHARMACEUTICAL COMPOSITION FOR PREVENTING OR TREATING MUSCULAR WEAKNESS-RELATED DISEASES COMPRISING ALVERINE, 4-HYDROXY ALVERINE, DERIVATIVE THEREOF, OR PHARMACEUTICALLY ACCEPTABLE SALT THEREOF” (AVENTI INC., priority 2020, published 2023).

What was measured:
[1] = tested on: C2C12 cells; experiment: Promotion of differentiation of myoblasts (MyHC fluorescent staining); assay type: cell-based, mouse
Method: C2C12 (American Type Culture Collection, CRL-1772™) cells are a myoblast cell line obtained from C3H mouse and is used in myoblast differentiation research. The C2C12 cells were cultured using growth media, and then cultured using differentiation media for differentiation induction. Here, DMEM supplemented with 10% fetal bovine serum was used as growth media (GM), and DMEM supplemented with 5% horse serum (HS) was used as differentiation media (DM). In order to confirm the effect of alverine citrate on promoting the differentiation of myoblasts, C2C12 cells were dispensed in the GM of Example 1.1 and cultured for 24 hours, and then the C2C12 cells were treated with DMSO, insulin, or alverine citrate, and induced for differentiation over 3 days. […] Here, the DMSO, insulin and alverine citrate used in the experiment were all purchased from Sigma-Aldrich. The group treated with insulin was used as the positive control group. In particular, C2C12 cells were dispensed in a 6-well plate treated with the GM of Example 1.1 at a concentration of 5×10^5 cells per plate and after 24 hours, were replaced with DMEM media supplemented with 5% HS and induced for differentiation. Thereafter, the cells were treated with DMSO, insulin (1.72 μM) or alverine citrate (0.01 μM, 0.1 μM, 1 μM or 10 μM). After 3 days, after removing the media, the cells were washed with phosphate buffer solution (1× PBS) and treated with paraformaldehyde (4%) and fixed at room temperature for 15 minutes. Then, after washing three times with phosphate buffer solution (1× PBS), PBS containing 0.3% triton X-100 was treated with permeabilization buffer and allowed to react at room temperature for 10 minutes. After washing three times with phosphate buffer solution (1× PBS), PBST (blocking buffer, PBS containing 0.5% Tween 20) containing 2% bovine serum albumin was administered and allowed to react for 30 minutes to suppress nonspecific binding of antibodies. After washing with phosphate buffer (1× PBS) three times, 100 μL of primary antibodies (SC-20641, Santa Cruz Biotechnology) to MYH3 diluted to 1:500 were added and allowed to react at room temperature for 1 hour. Thereafter, after washing with phosphate buffer (1× PBS) three times, 100 μL of secondary antibodies (Goat anti-Rabbit IgG-HRP) diluted to 1:5,000 were added and allowed to react at room temperature for 1 hour. After 1 hour, for nuclear staining, after washing with phosphate buffer (1× PBS) three times, the blocking buffer was treated with diluted DAPI dye and allowed to react at room temperature for 10 minutes. Thereafter, after washing with phosphate buffer (1× PBS) three times, the washed cover glass was measured for absorbance at a wavelength of 450 nm and a fluorescent image was taken using a fluorescence microscope. The anti-MyHC antibody stained area was analyzed using imageJ (Java-based image processing program). To confirm the effect of 4-hydroxy alverine on promoting myoblast differentiation, following the same method as Example 1, DMSO, insulin (1.72 μM), alverine citrate (0.01 μM, 0.1 μM, 1 μM or 10 μM), 4-hydroxy alverine (0.01 μM, 0.1 μM, 1 μM or 10 μM) were each administered, and differentiation to myotubes and changes in myotube thickness and diameter were observed.

[2] = tested on: C2C12 cells; experiment: Myotube atrophy induced by C26 cancer cell conditioned medium (cachexia model); assay type: cell-based, mouse; conditions: 1 μM; differentiation media with 33% CM, 3 days
Method: In order to confirm a cachexia treatment effect of alverine citrate and 4-hydroxy alverine, an experiment mimicking a tumor-growth environment by treatment of a cancer cell conditioned medium (CM) was conducted as an ex vivo approach. First, cancer cell CM was prepared using a C26 cancer cell line. Here, as cancel cell growth media (GM), RPMI1640 media supplemented with 10% fetal bovine serum was used. The C26 cancer cell line was cultured using a 100 mm cell culture plate and the cancer cell GM. Here, the media were removed when cell confluency reached 90%. Then, after washing with phosphate buffer (1× buffer), the prepared differentiation media were treated following the same process as in Example 1. After 24 hours, a C26 cancer cell line CM was obtained and filtered using bottle top filters (Thermo, PES, 1 L) before use.
C2C12 cells were dispensed in a 6-well plate treated with the GM of Example 1.1 at a concentration of 5×10^5 cells per plate and after 24 hours, were replaced with DMEM media supplemented with 5% HS and induced for differentiation. […] Here, by treating the experimental groups with 1 μM alverine citrate (AC) and 4-hydroxy alverine (4HA), the effect of suppressing myotube atrophy was evaluated. […] Following the same method as in Example 1.2, by florescent staining using antibodies against MyHC, the expression amount of MyHC was measured.

[3] = tested on: sarcopenia-induced mice; experiment: Running ability test, sarcopenia-induced mouse; assay type: in vivo; conditions: hindlimb-immobilized mice; oral 150 mg/kg/day (AC-H); compared with normal mouse
Method: Running ability was measured using a treadmill designed specific for this experiment. First, aversive stimuli were provided by letting electric stimuli flow at the starting point. Before the measurement, the mice were acclimatized at 8 m/min for 10 minutes. The running time was recorded by allowing mice in each group to run in separate lanes until exhaustion. Exhaustion was defined such that when the mouse stays outside the lanes for 10 seconds or more without running, the mouse was determined to be exhausted and the time was recorded. It was not possible to repeat this experiment on the same mouse. The mouse was placed on the treadmill and the test was started at 8 rpm, and the speed was accelerated by 2 rpm every 10 minutes to a maximum speed of 20 rpm. The slope of the lane started from a zero-degree incline and then was elevated to a five-degree incline after 30 min from the start. In order to confirm a muscle strength enhancement effect of alverine citrate, sarcopenia-induced mice were administered with alverine citrate and tested for running ability. After the treadmill running test, muscle weight was measured. In particular, the hindlimb of 10 week-old C57BL/6 male mice was immobilized using a surgical stapler (Autosuture Royal 35W stapler). […] After that, running ability was measured. […] Running ability was measured by the same method as in Example 2.2.

[4] = tested on: C2C12 cells; experiment: Effect of alverine derivatives on promoting myoblast differentiation; assay type: cell-based, mouse; conditions: 1 μM, 4 days; compared with DMSO alone
Method: C2C12 (American Type Culture Collection, CRL-1772™) cells are a myoblast cell line obtained from C3H mouse and is used in myoblast differentiation research. The C2C12 cells were cultured using growth media, and then cultured using differentiation media for differentiation induction. Here, DMEM supplemented with 10% fetal bovine serum was used as growth media (GM), and DMEM supplemented with 5% horse serum (HS) was used as differentiation media (DM).
In order to confirm the effect of an alverine derivative on promoting the differentiation of myoblasts, C2C12 cells were dispensed in the GM of Example 1.1 and cultured for 24 hours. Then, the C2C12 cells were treated with DMSO (Sigma-Aldrich), insulin, alverine (Sigma-Aldrich), or 27 types of alverine derivatives, each at a concentration of 1 μM and were induced for differentiation over 4 days. […]
After washing three times with phosphate buffer (1× PBS), PBST (blocking buffer, PBS containing 0.5% Tween 20) containing 2% bovine serum albumin was administered and allowed to react for 30 minutes to suppress nonspecific binding of antibodies. […] Thereafter, after washing with phosphate buffer (1× PBS) three times, the washed cover glass was measured for absorbance at a wavelength of 450 nm and a fluorescent image was taken using a fluorescence microscope.

`CCN(CCCc1ccccc1)CCCc1ccc(O)cc1` [4-hydroxy alverine, 4-[3-[ethyl(3-phenylpropyl)amino]propyl]phenol] was tested, and the “differentiation of myoblasts to myotubes” value ([1]; compared with DMSO or insulin (1.72 μM), 0.01-10 μM) was “more differentiated to myotubes”, the differentiation promoting effect ([1]; compared with alverine at the same concentration) was “superior differentiation promoting effect than alverine” and the myotube atrophy [2] was “myotube atrophy was suppressed”.

For `CCN(CCCc1ccccc1)CCCc1ccccc1` [Alverine, N-ethyl-3-phenyl-N-(3-phenylpropyl)propan-1-amine], the running time [3] was “increased compared to the normal mouse” and the “differentiation of myoblasts to myotubes” value [4] was “promoted the differentiation to myotubes”.

In the case of “insulin: positive control group, purchased from Sigma-Aldrich”, the “differentiation of myoblasts to myotubes” value ([1]; compared with DMSO alone, 3 days, insulin 1.72 μM, alverine citrate 0.01-10 μM) is reported as “more differentiated to myotubes”.
